Data taken from patent US20250032624A1, “SMALL MOLECULE DEGRADATION METHODS FOR TREATING ALS/FTD” (University of Florida Research Foundation, Incorporated, priority 2021, published 2025).

Legend:
Type in all cases: cell-based, human
[1] = tested on: RAN translation, poly(GP); assay: poly(GP) abundance in c9ALS/FTD iPSNs; settings: 500 nM, treated 17 days (day 15-32)
Method: Differentiated motor neurons (iPSNs) were derived from the iPSCs listed in the previous section. The differentiation process was based on a previously reported method with slight modifications^33,34. Briefly, iPSCs were plated into Matrigel-coated 100 mm dishes (30-40% confluence). Neuroepithelial induction was performed by replacing the Basal medium with Stage 1 medium [47.5% IMDM (Iscove's Modified Dulbecco's Medium), 47.5% F12 medium, 1% NEAA (Non-Essential Amino Acids) (Life Technologies), 2% B27 (Invitrogen), 1% N2 (Invitrogen), 1% PSA (Penicillin-Streptomycin-Amphotericin), 0.2 μM LDN193189 (Stemgent), 10 μM SB431542 (STEMCELL Technologies) and 3 μM CHIR99021 (Sigma-Aldrich)]. The medium was changed daily for 6 days, after which cells were detached from plates using Accutase (STEMCELL Technologies). Cells were seeded into 6-well plates (1.5×10^6 cells/well) in 3 mL of Stage 2 medium [Stage 1 medium supplemented with 0.1 μM All-trans RA (Sigma-Aldrich) and 1 μM SAG (Cayman Chemicals)]. […]
Meso Scale Discovery (MSD) Technology utilizes electrochemiluminescence to detect biomarkers, such as poly(GP), in protein samples. […] Protein samples were quantified using a Pierce™ Micro BCA Protein Assay Kit (Thermo Scientific).
Poly(GP) levels were measured by an electrochemical luminescent sandwich immunoassay. […]

[2] = tested on: lymphoblastoid cell lines (LCLs); assay: Cell viability in LCLs; settings: doses up to 1 μM
Method: Patient-derived LCLs were seeded overnight in 96-well plates (˜10^4 cells/well) and treated with compounds for 96 hours. Cell viability was measured using the CellTiter-Fluor™ Cell Viability Assay (Promega) per the manufacturer's protocol. iPSC cell viability was measured by seeding cells in Matrigel-coated 6-well plates with Basal medium (iPSC maintenance described above). After overnight incubation, the medium was replaced with fresh medium containing compounds diluted in 0.1% DMSO. Cells were treated with compound for 96 hours. Cell viability was measured using the AlamarBlue™ Cell Viability Reagent (DAL1025, Thermo Fisher Scientific) per the manufacturer's protocol. iPSN cell viability was measured by […]

C9orf72 intron 1 = assay: C9orf72 transcript RT-qPCR in LCLs from healthy donors
Method: Measuring Levels of C9orf72 and C9orf72 Variants by RT-qPCR. LCLs and iPSCs were seeded in 6-well plates (˜10^6 cells in 2 mL of Basal medium) and incubated overnight at 37° C. with 5% CO2. LCLs were then treated with compound for 4 days without media changes; patient-derived iPSCs were seeded at ˜80% confluency and treated, as described above. Treatment with either a G4C2-ASO or Control-ASO (100 nM) was used as a control. ASO transfection was achieved using Lipofectamine RNAiMax (Life Technologies), following the manufacturer's protocol. After 4 days of treatment (with either compound or ASO), total RNA was extracted using the Quick-RNA Miniprep Kit (Zymo Research). RNA was quantified via Nanodrop and ˜1 μg of total RNA was reverse transcribed using qScript (Quantbio), according to the manufacturer's guidelines. RT-qPCR was performed on a QuantStudio™ Real-Time PCR Instrument (Applied Biosystems) using Power SYBR Green Master Mix (Applied Biosystems). Expression levels of mRNAs were normalized to GAPDH. See Table 2 for a list of primers used.

Compound: CCOC(=O)C1=C(Nc2ccccc2)S/C(=C\c2ccc(OCCOCCOCCOCCNC(=O)CCCOc3ccc4c(c3)c3cc5c(C(=O)N[C@H](C)CN(C)C)nccc5c(C)c3n4C)c(O)c2)C1=O [ALS Compound Formula I]
- reduction of poly(GP) abundance [1]: ~60%
- toxicity [2]: no significant toxicity
- effect on C9orf72 intron 1 levels (C9orf72 intron 1): did not reduce
